Assay results as given in article PMC9917560, “Design, Synthesis and Antimicrobial Evaluation of New N-(1-Hydroxy-1,3-dihydrobenzo[c][1,2]oxaborol-6-yl)(hetero)aryl-2-carboxamides as Potential Inhibitors of Mycobacterial Leucyl-tRNA Synthetase” (International Journal of Molecular Sciences, 2023).
Converted amounts (≈) assume the structure as drawn. Read-outs that look alike come from different tables or passages of the source.

Experiments:
[1] = tested on: Candida parapsilosis CCM 8260 (ATCC 22019); test: Antifungal microdilution broth (EUCAST); type: cell-based; conditions: Lodderomyces parapsilosis, read-out: MIC Candida parapsilosis
[2] = tested on: Candida albicans CCM 8320 (ATCC 24433); test: Antifungal microdilution broth (EUCAST); type: cell-based; conditions: Candida albicans, read-out: MIC Candida albicans
[3] = tested on: Mycobacterium kansasii DSM 44,162 (ATCC 12478); test: Antimycobacterial microdilution (resazurin) vs M. kansasii; type: cell-based; conditions: read-out: MIC M. kansasii
[4] = tested on: Candida krusei CCM 8271 (ATCC 6258); test: Antifungal microdilution broth (EUCAST); type: cell-based; conditions: Pichia kudriavzevii, read-out: MIC Candida krusei
[5] = tested on: Trichophyton interdigitale CCM 8377 (ATCC 9533); test: Antifungal microdilution broth (EUCAST); type: cell-based; conditions: Trichophyton interdigitale, read-out: MIC Trichophyton interdigitale
[6] = tested on: Mycolicibacterium aurum DSM 43,999 (ATCC 23366); test: Antimycobacterial microdilution (resazurin) vs M. aurum; type: cell-based; conditions: Middlebrook 7H9, resazurin, read-out: MIC M. aurum
[7] = tested on: methicillin-resistant Staphylococcus aureus subsp. aureus (MRSA) CCM 4750 (ATCC 43300); test: microbe, parasite or virus in culture; type: cell-based; conditions: read-out: MIC Methicillin-resistant Staphylococcus aureus subsp. aureus
[8] = tested on: Aspergillus flavus CCM 8363; test: Antifungal microdilution broth (EUCAST); type: cell-based; conditions: Aspergillus flavus, CCM8363, read-out: MIC Aspergillus flavus
[9] = tested on: Mycolicibacterium smegmatis DSM 43,465 (ATCC 607); test: Antimycobacterial microdilution (resazurin) vs M. smegmatis; type: cell-based; conditions: Middlebrook 7H9, resazurin, read-out: MIC M. smeg.
HepG2 cell line = test: Cytotoxicity screening, CellTiter 96 assay; conditions: Homo sapiens, HepG2, 24 h, read-out: IC50 HepG2
[10] = tested on: Lichtheimia corymbifera CCM 8077; test: Antifungal microdilution broth (EUCAST); type: cell-based; conditions: Lichtheimia corymbifera, CCM8077, read-out: MIC Lichtheimia corymbifera
[11] = tested on: Staphylococcus epidermidis CCM 4418 (ATCC 12228); test: Antibacterial microdilution broth (EUCAST); type: cell-based; conditions: read-out: MIC Staphylococcus epidermidis
[12] = tested on: Acinetobacter baumannii DSM 30007 (ATCC 19606); test: Antibacterial microdilution broth (EUCAST); type: cell-based; conditions: read-out: MIC Acinetobacter baumannii
[13] = tested on: Mycobacterium tuberculosis H37Rv CNCTC My 331/88 (ATCC 27294); test: Microplate Alamar Blue assay vs Mtb H37Rv; type: cell-based; conditions: Mycobacterium tuberculosis
[14] = tested on: Aspergillus fumigatus ATCC 204305; test: Antifungal microdilution broth (EUCAST); type: cell-based; conditions: Aspergillus fumigatus, ATCC204305, read-out: MIC Aspergillus fumigatus
[15] = tested on: Escherichia coli CCM 3954 (ATCC 25922); test: Antibacterial microdilution broth (EUCAST); type: cell-based; conditions: for MIC: Escherichia coli, read-out: MIC Escherichia coli
[16] = tested on: Mycobacterium tuberculosis H37Ra ITM-M006710 (ATCC 9431); test: Antimycobacterial microdilution (resazurin) vs Mtb H37Ra; type: cell-based
[17] = tested on: Mycobacterium avium DSM 44,156 (ATCC 25291); test: Antimycobacterial microdilution (resazurin) vs M. avium; type: cell-based; conditions: Mycobacterium avium, Middlebrook 7H9, resazurin; read-out: MIC M. avium
[18] = tested on: Staphylococcus aureus subsp. aureus CCM 4223 (ATCC 29213); test: Antibacterial microdilution broth (EUCAST); type: cell-based; conditions: read-out: MIC Staphylococcus aureus subsp. aureus
[19] = tested on: Candida tropicalis CCM 8264 (ATCC 750); test: Antifungal microdilution broth (EUCAST); type: cell-based; conditions: read-out: MIC Candida tropicalis
[20] = tested on: Enterococcus faecalis CCM 4224 (ATCC 29212); test: Antibacterial microdilution broth (EUCAST); type: cell-based; conditions: read-out: MIC Enterococcus faecalis
[21] = tested on: Pseudomonas aeruginosa CCM 3955 (ATCC 27853); test: Antibacterial microdilution broth (EUCAST); type: cell-based; conditions: read-out: MIC Pseudomonas aeruginosa
[22] = tested on: Klebsiella pneumoniae CCM 4415 (ATCC 10031); test: Antibacterial microdilution broth (EUCAST); type: cell-based; conditions: for MIC: Klebsiella pneumoniae, read-out: MIC Klebsiella pneumoniae

Work on `O=C(Nc1ccc2c(c1)B(O)OC2)c1cscn1` [Compound 16, N-(1-hydroxy-1,3-dihydrobenzo[c][1,2]oxaborol-6-yl)thiazole-4-carboxamide] yielded a melting point of 225.7 to 227.9 °C, an MIC ([1]; 24h incubation) of over 500 µM and an MIC ([1]; 48h incubation) of over 500 µM. It also gave an MIC ([2]; 24h incubation) of over 500 µM, an MIC ([2]; 48h incubation) of over 500 µM and an MIC ([3]; Middlebrook 7H9, resazurin) of 30 µM (≈ 7.81 µg/mL). The MIC ([4]; 24h incubation) was over 500 µM, the MIC ([4]; 48h incubation) was over 500 µM and the MIC ([5]; 72h incubation) was over 500 µM. It also gave an MIC ([5]; 120h incubation) of over 500 µM, an MIC [6] of 15 µM (≈ 3.91 µg/mL) and an MIC ([7]; 24 h) of 250 µM (≈ 65 µg/mL). The MIC ([7]; 48 h) was 500 µM (≈ 130 µg/mL), the MIC ([8]; 24h incubation) was over 500 µM and the MIC ([8]; 48h incubation) was over 500 µM. It also gave an MIC [9] of 30 µM (≈ 7.81 µg/mL), an IC50 (HepG2 cell line) of over 1000 µM and an MIC ([10]; 24h incubation) of over 500 µM. The MIC ([10]; 48h incubation) was over 500 µM, the MIC ([11]; 24h incubation) was 500 µM (≈ 130 µg/mL) and the MIC ([11]; 48h incubation) was over 500 µM. It also gave an MIC ([12]; 24h incubation) of over 500 µM, an MIC ([12]; 48h incubation) of over 500 µM and an MIC ([13]; pH 6.6, MABA, Middlebrook 7H9 pH 6.6, recalculated from µg/mL, read-out: MIC Mtb H37Rv) of 96.1 µM (≈ 25 µg/mL). For the same compound, the MIC ([14]; 24h incubation) was over 500 µM, the MIC ([14]; 48h incubation) was over 500 µM and the “MIC Escherichia coli” value ([15]; 48h incubation) was “no inhibition”. The MIC ([15]; 24h incubation) was 500 µM (≈ 130 µg/mL), the MIC ([15]; 48h incubation) was over 500 µM and the MIC ([16]; Middlebrook 7H9, resazurin, recalculated from µg/mL, read-out: MIC Mtb H37Ra) was 120 µM (≈ 31.3 µg/mL). The MIC [17] was 240 µM (≈ 62.5 µg/mL), the MIC ([18]; 24h incubation) was 125 µM (≈ 32.5 µg/mL) and the MIC ([18]; 48h incubation) was 125 µM (≈ 32.5 µg/mL). The MIC ([19]; 24h incubation) was over 500 µM, the MIC ([19]; 48h incubation) was over 500 µM and the MIC ([20]; 24h incubation) was over 500 µM. For the same compound, the MIC ([20]; 48h incubation) was over 500 µM, the MIC ([21]; 24h incubation) was over 500 µM and the MIC ([21]; 48h incubation) was over 500 µM. For the same compound, the “MIC Klebsiella pneumoniae” value ([22]; 48h incubation) was “no inhibition”, the MIC ([22]; 24h incubation) was 500 µM (≈ 130 µg/mL) and the MIC ([22]; 48h incubation) was over 500 µM.

In the case of `O=C(Nc1ccc2c(c1)B(O)OC2)c1nc2ccccc2[nH]c1=O` [Compound 18, N-(1-hydroxy-1,3-dihydrobenzo[c][1,2]oxaborol-6-yl)-3-oxo-3,4-dihydroquinoxaline-2-carboxamide], the melting point is reported as 348.9 to 350.2 °C (dec.), the MIC ([1]; 24h incubation) is reported as over 125 µM and the MIC ([1]; 48h incubation) is reported as over 125 µM. It also gave an MIC ([2]; 24h incubation) of over 125 µM, an MIC ([2]; 48h incubation) of over 125 µM and an MIC [3] of over 1850 µM. For the same compound, the MIC ([4]; 24h incubation) was over 125 µM, the MIC ([4]; 48h incubation) was over 125 µM and the MIC ([5]; 72h incubation) was over 125 µM. The MIC ([5]; 120h incubation) was over 125 µM, the MIC [6] was 24.3 µM (≈ 7.81 µg/mL) and the MIC ([7]; 24 h) was over 500 µM. For the same compound, the MIC ([7]; 48 h) was over 500 µM, the MIC ([8]; 24h incubation) was over 125 µM and the MIC ([8]; 48h incubation) was over 125 µM. The MIC [9] was 24.3 µM (≈ 7.81 µg/mL), the IC50 (HepG2 cell line) was 244 µM and the MIC ([10]; 24h incubation) was over 125 µM. It also gave an MIC ([10]; 48h incubation) of over 125 µM, an MIC ([11]; 24h incubation) of over 500 µM and an MIC ([11]; 48h incubation) of over 500 µM. It also gave an MIC ([12]; 24h incubation) of over 500 µM, an MIC ([12]; 48h incubation) of over 500 µM and an MIC ([13]; pH 6.6, read-out: MIC Mtb H37Rv, MABA, Middlebrook 7H9 pH 6.6, recalculated from µg/mL) of over 311 µM. It also gave an MIC ([14]; 24h incubation) of over 125 µM, an MIC ([14]; 48h incubation) of over 125 µM and an MIC ([15]; 24h incubation) of over 500 µM. The MIC ([15]; 48h incubation) was over 500 µM, the MIC ([16]; read-out: MIC Mtb H37Ra, Middlebrook 7H9, resazurin, recalculated from µg/mL) was over 1850 µM and the MIC [17] was 48.7 µM (≈ 15.6 µg/mL). It also gave an MIC ([18]; 24h incubation) of over 500 µM, an MIC ([18]; 48h incubation) of over 500 µM and an MIC ([19]; 24h incubation) of over 125 µM. The MIC ([19]; 48h incubation) was over 125 µM, the MIC ([20]; 24h incubation) was over 500 µM and the MIC ([20]; 48h incubation) was over 500 µM. For the same compound, the MIC ([21]; 24h incubation) was over 500 µM, the MIC ([21]; 48h incubation) was over 500 µM and the MIC ([22]; 24h incubation) was over 500 µM. It also gave an MIC ([22]; 48h incubation) of over 500 µM.
